Data: the supplement of paper PMC11061612
Values belong to the compound of their own block, whether it stands above or below them.

Assays:
Test in all cases: combination Emax (second highest fraction inhibited in the dose matrix, 72 h); higher = more inhibition; extreme values may be limits of the assay
[1] = tested on: LS-513 (Colorectal Carcinoma)
Procedure, shortened: (§1)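 Cell lines grown in DMEM/F12 or RPMI with 10% FBS were plated in 1536-well plates and held 24 hours at 37°C, 5% CO2 before 72 hours of exposure to two-drug dose matrices, with DMSO typically at 0.2%. CellTiter-Glo 2.0 luminescence gave viability, which was converted to inhibition. Vehicle wells were set to 0 and blank wells to 1. Combination Emax is the second-highest inhibition in the matrix, and Bliss excess is the observed combination effect minus the expected EA + EB − EA·EB, where EA and EB are the single-agent effects.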

IGR-1 (Melanoma) = tested on: IGR-1 (Melanoma)
Procedure, shortened: as §1

[2] = tested on: NCI-H1793 (Lung Adenocarcinoma)
Procedure, shortened: as §1

CAL-78 (Chondrosarcoma) = tested on: CAL-78 (Chondrosarcoma)
Procedure, shortened: as §1

[3] = tested on: G-292-Clone-A141B1 (Osteosarcoma)
Procedure, shortened: as §1

[4] = tested on: MDA-MB-157 (Breast Carcinoma)
Procedure, shortened: as §1

[5] = tested on: KM-H2 (Hodgkin's Lymphoma)
Procedure, shortened: as §1

[6] = tested on: DB (B-Cell Non-Hodgkin's Lymphoma)
Procedure, shortened: as §1

[7] = tested on: CTV-1 (T-Lymphoblastic Leukemia)
Procedure, shortened: as §1

[8] = tested on: DOV13 (Ovarian Carcinoma)
Procedure, shortened: as §1

[9] = tested on: SW1783 (Low Grade Glioma)
Procedure, shortened: as §1

[10] = tested on: SNU-C5 (Colorectal Carcinoma)
Procedure, shortened: as §1

[11] = tested on: COR-L95 (Small Cell Lung Carcinoma)
Procedure, shortened: as §1

[12] = tested on: SW756 (Cervical Carcinoma)
Procedure, shortened: as §1

[13] = tested on: HT-29 (Colorectal Carcinoma)
Procedure, shortened: as §1

[14] = tested on: KATOIII (Gastric Carcinoma)
Procedure, shortened: as §1

NCI-H2595 (Mesothelioma) = tested on: NCI-H2595 (Mesothelioma)
Procedure, shortened: as §1

[15] = tested on: HPAC (Pancreatic Carcinoma)
Procedure, shortened: as §1

NCI-H2369 (Mesothelioma) = tested on: NCI-H2369 (Mesothelioma)
Procedure, shortened: as §1

[16] = tested on: SW780 (Bladder Carcinoma)
Procedure, shortened: as §1

combination Emax [5]: 0.0543
Structure (SMILES): CN(CCO)CC[C@H](CSc1ccccc1)Nc1ccc(S(=O)(=O)NC(=O)c2ccc(N3CCC([C@@H](O)c4ccccc4-c4ccc(Cl)cc4)CC3)cc2)cc1S(=O)(=O)C(F)(F)F [AZD4320] + C1CN(CCC1(C(=O)N[C@@H](CCO)C2=CC=C(C=C2)Cl)N)C3=NC=NC4=C3C=CN4 [Capivasertib] (first compound max 1 µM, 7x7, partner max 3 µM)
combination Emax [1]: 0.324
combination Emax (IGR-1 (Melanoma)): 0.256
combination Emax [2]: 0.195
combination Emax (CAL-78 (Chondrosarcoma)): 0.524
combination Emax [3]: 0.754
combination Emax [4]: 0.0801
combination Emax [6]: 0.899
combination Emax [7]: 0.404
combination Emax [8]: 0.812
combination Emax [9]: 0.44
combination Emax [10]: 0.3
combination Emax [11]: 1
combination Emax [12]: 0.143
combination Emax [13]: 0.196
combination Emax [14]: 0.128
combination Emax (NCI-H2595 (Mesothelioma)): 0.151
combination Emax [15]: 0.137
combination Emax (NCI-H2369 (Mesothelioma)): 0.859
combination Emax [16]: 0.578

Structure (SMILES): COc1nnc2ccc(N3CCC(c4ccc(OCCN5CCN(C)C(=O)[C@H]5C)cc4)CC3)nn12 [AZD5153] + CC1(C)CCC(CN2CCN(c3ccc(C(=O)NS(=O)(=O)c4ccc(NCC5CCOCC5)c([N+](=O)[O-])c4)c(Oc4cnc5[nH]ccc5c4)c3)CC2)=C(c2ccc(Cl)cc2)C1 [Venetoclax] (first compound max 1 µM, 7x7, partner max 1 µM)
combination Emax [1]: 0.568
combination Emax (IGR-1 (Melanoma)): 0.433
combination Emax [2]: 0.248
combination Emax (CAL-78 (Chondrosarcoma)): 0.457
combination Emax [3]: 0.256
combination Emax [4]: 0.498
combination Emax [5]: 0.377
combination Emax [6]: 0.991
combination Emax [7]: 0.963
combination Emax [8]: 0.477
combination Emax [9]: 0.28
combination Emax [10]: 0.522
combination Emax [11]: 0.802
combination Emax [12]: 0.315
combination Emax [13]: 0.718
combination Emax [14]: 0.337
combination Emax (NCI-H2595 (Mesothelioma)): 0.375
combination Emax [15]: 0.535
combination Emax (NCI-H2369 (Mesothelioma)): 0.327
combination Emax [16]: 0.375

combination Emax [5]: 0.751
Structure (SMILES): Cn1cnc2c(F)c(Nc3ccc(Br)cc3Cl)c(C(=O)NOCCO)cc21 [Selumetinib] + C[C@@H]1COCCN1C2=NC(=NC(=C2)C3(CC3)[S@](=N)(=O)C)C4=C5C=CNC5=NC=C4 [AZD6738] (first compound max 10 µM, 7x7, partner max 10 µM)
combination Emax [1]: 0.897
combination Emax (IGR-1 (Melanoma)): 0.707
combination Emax [2]: 0.524
combination Emax (CAL-78 (Chondrosarcoma)): 0.42
combination Emax [3]: 0.141
combination Emax [4]: 0.92
combination Emax [6]: 0.274
combination Emax [7]: 0.906
combination Emax [8]: 0.763
combination Emax [9]: 0.362
combination Emax [10]: 0.789
combination Emax [11]: 0.535
combination Emax [12]: 0.287
combination Emax [13]: 0.862
combination Emax [14]: 0.415
combination Emax (NCI-H2595 (Mesothelioma)): 0.165
combination Emax [15]: 0.735
combination Emax (NCI-H2369 (Mesothelioma)): 0.187
combination Emax [16]: 0.381
